According to paper PMC9320910, “Inhibition of Microtubule Affinity Regulating Kinase 4 by Metformin: Exploring the Neuroprotective Potential of Antidiabetic Drug through Spectroscopic and Computational Approaches” (Molecules, 2022):

Target: T1, Microtubule affinity regulating kinase 4 (MARK4) (Homo sapiens, UniProt Q96L34)
T1 sequence (Q96L34 1-752): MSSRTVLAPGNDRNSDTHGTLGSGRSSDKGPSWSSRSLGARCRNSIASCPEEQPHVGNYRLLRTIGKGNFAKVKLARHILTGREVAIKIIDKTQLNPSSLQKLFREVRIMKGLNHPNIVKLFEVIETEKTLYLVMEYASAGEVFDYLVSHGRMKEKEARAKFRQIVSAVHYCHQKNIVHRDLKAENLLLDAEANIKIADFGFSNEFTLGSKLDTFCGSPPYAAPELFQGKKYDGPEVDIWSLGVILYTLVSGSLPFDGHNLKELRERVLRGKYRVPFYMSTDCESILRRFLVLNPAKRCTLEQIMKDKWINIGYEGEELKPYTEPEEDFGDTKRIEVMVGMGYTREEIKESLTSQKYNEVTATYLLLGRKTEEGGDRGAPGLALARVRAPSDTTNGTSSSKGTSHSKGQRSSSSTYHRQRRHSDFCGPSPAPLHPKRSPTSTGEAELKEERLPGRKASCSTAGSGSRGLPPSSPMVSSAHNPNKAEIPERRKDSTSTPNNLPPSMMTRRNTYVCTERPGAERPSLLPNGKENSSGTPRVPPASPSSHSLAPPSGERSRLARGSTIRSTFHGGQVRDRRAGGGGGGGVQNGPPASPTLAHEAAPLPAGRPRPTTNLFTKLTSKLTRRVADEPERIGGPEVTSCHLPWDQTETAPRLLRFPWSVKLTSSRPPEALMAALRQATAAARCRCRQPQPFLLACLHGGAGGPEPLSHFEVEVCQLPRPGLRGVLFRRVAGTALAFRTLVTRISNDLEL
Assay: intrinsic fluorescence quenching (modified Stern-Volmer); supported by malachite green ATPase assay of MARK4 (IC50 =[…])
Assay type: binding

Kd: 1.67 µM
Structure (SMILES): CN(C)C(=N)N=C(N)N [Mtf, N,N-dimethylbiguanide]
